Measured values reported in patent publication US20120077685A1, “INTRATUMORAL GENE EXPRESSION LEVELS OF TP AND VEGF ARE ASSOCIATED WITH CLINICAL OUTCOMES IN RECTAL CANCER PATIENTS TREATED WITH 5-FLUOROURACIL AND PELVIC RADIATION” (University of Southern California, priority 2010, published 2012).

Columns and labels:
[1] = system: stage II/III rectal cancer; test: Phase III trial (INT-0144, S9304) of 5-FU and radiation: disease-free survival by intratumoral gene expression tertile; format: in vivo, human
Procedure: Methods: A total of 422 stage II/III rectal patients from a phase III trial (INT-0144, […]) of three regimens of 5-FU and radiation were available for gene expression assays. mRNA was extracted from laser-capturemicrodissected tumor tissue. cDNA was prepared by reverse transcription and quantitation of the candidate genes was performed using a fluorescence-based real-time detection method. The gene expression data were analyzed by splitting the expression data into three (tertiles) groups using 33rd and 66th percentile.

[2] = system: stage II/III rectal cancer; details: neo-adjuvant or adjuvant 5-FU and radiation therapy; cited from earlier work

O=c1[nH]cc(F)c(=O)[nH]1 [5-FU, 5-fluorouracil]
three year DFS ([1]; patients with high TP gene expression (tertile)): 79% | three year DFS ([1]; patients with high VEGF gene expression (tertile)): 65% | three year DFS ([1]; patients with low TP gene expression (tertile)): 65% | three year DFS ([1]; patients with low VEGF gene expression (tertile)): 77% | three year DFS ([1]; patients with median TP gene expression (tertile)): 67% | three year DFS ([1]; patients with median VEGF gene expression (tertile)): 69% | overall 5-year survival rate [2]: approximately 50%
